This is an account of results in patent US20050228016A1, “TETRAHYDROQUINOLINES FOR MODULATING THE EXPRESSION OF EXOGENOUS GENES VIA AN ECDYSONE RECEPTOR COMPLEX” (priority 2002, published 2005).

The target of data set [1] is T1, Gal4DBD/AaEcR (DEF) (Aedes aegypti, UniProt P49880).
T1 construct: The wildtype D, E, and F domains from mosquito Aedes aegypti EcR; expressed in transfected cells; host or cells: 3T3 cells
Nature of the data set: cell-based. Type of data set: cell-based. As to conditions: for Fold Induction Average, AA_3T3V1 Assay 33 μM: 3T3 cells, 48 h, average of two wells. As for the experimental part: 3T3 cells were trypsinized and plated at 2.5×10^3 cells/well on a 96-well plate. After incubation for 24 h at 37° C. under 5% CO2, cells were transfected with the Gal4DBD/AaEcR (DEF) gene expression cassette and the reporter plasmid, pFRLuc, containing a 5× GAL4 response element and the firefly luciferase gene in serum free media using Superfect (Qiagen). After transfection for 4 h at 37° C., the cells were treated with ligand in serum media. […] Single dose testing was performed at 33 μM.

The target in data set [2] is T2, Bombyx mori EcR (VP16-BmEcR, CVBE) (Bombyx mori, UniProt P49881).
T2 construct: expressed in transfected cells
T2 sequence (P49881 86-606): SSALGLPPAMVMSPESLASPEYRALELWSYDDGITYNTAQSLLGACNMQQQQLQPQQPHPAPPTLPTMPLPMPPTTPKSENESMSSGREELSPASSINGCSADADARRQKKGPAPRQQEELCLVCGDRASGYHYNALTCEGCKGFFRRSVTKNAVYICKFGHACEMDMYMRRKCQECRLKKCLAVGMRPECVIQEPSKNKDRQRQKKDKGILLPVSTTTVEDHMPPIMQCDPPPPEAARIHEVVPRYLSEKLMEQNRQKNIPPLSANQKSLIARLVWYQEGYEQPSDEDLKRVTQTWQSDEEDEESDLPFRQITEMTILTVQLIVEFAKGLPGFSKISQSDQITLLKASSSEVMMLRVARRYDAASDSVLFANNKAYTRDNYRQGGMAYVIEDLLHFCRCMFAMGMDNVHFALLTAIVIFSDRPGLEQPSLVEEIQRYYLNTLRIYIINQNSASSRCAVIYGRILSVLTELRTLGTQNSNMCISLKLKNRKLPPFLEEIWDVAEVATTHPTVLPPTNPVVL
Nature of the data set: Z3 assay (HEK-293 clone Z3 with CVBE and 6x EcRE LacZ, β-galactosidase reporter). Type of data set: cell-based. As to conditions: average of two wells; for Fold Induction Average, Z3V1 Assay 33 μM: 48 h. The source says:
Dr. F. Gage provided a population of stably transformed cells containing CVBE and 6× EcRE as described in (Suhr et. al. 1998). Human 293 kidney cells, also referred to as HEK-293 cells, were sequentially infected with retroviral vectors encoding first the switch construct CVBE, and subsequently the reporter construct 6× EcRE Lac Z. The switch construct contained the coding sequence for amino acids 26-546 from Bombyx nori EcR (BE) (Iatrou) inserted in frame and downstream of the VP16 transactivation domain (VBE). A synthetic ATG start codon was placed under the control of cytomegalovirus (CVBE) immediate early promoter and flanked by long terminal repeats (LTR). The reporter-construct contained six copies of the ecdysone response element (EcRE) binding site placed upstream of LacZ and flanked on both sides with LTR sequences (6× EcRE).
Dilution cloning was used to isolate individual clones. Clones were selected using 450 μg/ml G418 and 100 ng/ml puromycin. Individual clones were evaluated based on their response in the presence and absence of test ligands.
Human 293 kidney cells stably transformed with CVBE and 6× EcRE lack were maintained in Minimum Essential Medium (Mediates, 10-010-CV) containing 10%.FBS (Life Technologies, 26140-087),[…] G418 (Mediates, 30-234-CR), and […] (Sigma, P-7255), at 37° C. in an atmosphere containing 5% CO2 and were subculture when they reached 75% confluence.
Z3 cells were seeded into 96-well tissue culture plates at a concentration of 2.5×10^3 cells per well and incubated at 37° C. in 5% CO2 for twenty-four hours. Stock solutions of ligands were prepared in DMSO. Ligand stock solutions were diluted 100.fold in media and 50 μL of this diluted ligand solution (33 μM) was added to cells.
Reporter gene expression was evaluated 48 hours after treatment of cells, β-galactosidase activity was measured using Gal Screen™ bioluminescent reporter gene assay system from Tropix (GSY1000).
Flanking both constructs are long terminal repeats, G418 and puromycin are selectable markers, CMV is the cytomegalovirus promoter, VBE is coding sequence for amino acids 26-546 from Bombyx mori EcR inserted downstream of the VP16 transactivation domain, 6× EcRE is six copies of the ecdysone response element, lacZ encodes for the reporter enzyme β-galactosidase.

T1 sequence (P28704 286-520 A311G/G315S/G445S/I449V): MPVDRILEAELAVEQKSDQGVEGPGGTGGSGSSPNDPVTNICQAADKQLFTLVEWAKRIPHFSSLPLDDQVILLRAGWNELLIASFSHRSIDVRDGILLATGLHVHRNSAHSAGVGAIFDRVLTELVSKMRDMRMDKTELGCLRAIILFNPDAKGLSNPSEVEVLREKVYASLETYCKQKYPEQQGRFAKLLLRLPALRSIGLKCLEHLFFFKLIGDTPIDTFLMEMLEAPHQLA
T1 sequence (P49880 405-776): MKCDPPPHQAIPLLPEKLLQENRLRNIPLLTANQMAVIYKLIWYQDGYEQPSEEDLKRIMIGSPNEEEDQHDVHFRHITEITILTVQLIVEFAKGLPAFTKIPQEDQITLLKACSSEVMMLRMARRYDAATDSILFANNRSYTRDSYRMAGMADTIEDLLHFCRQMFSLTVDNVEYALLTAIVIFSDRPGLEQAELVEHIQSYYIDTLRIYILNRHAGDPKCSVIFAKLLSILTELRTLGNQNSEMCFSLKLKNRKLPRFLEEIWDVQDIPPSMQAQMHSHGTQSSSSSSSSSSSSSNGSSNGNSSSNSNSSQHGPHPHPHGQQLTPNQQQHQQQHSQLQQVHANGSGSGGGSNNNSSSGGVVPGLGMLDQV

Regarding `C[C@H]1C[C@H](Nc2ccccc2)c2ccccc2N1C(=O)c1ccc(C(F)(F)F)cc1` (relative stereo) [Compound I-71], the “Fold Induction Average, AA_3T3V1 Assay 33 μM” value in data set [1] amounted to 291 fold. The “Fold Induction Average, Z3V1 Assay 33 μM” value in data set [2] is 2 fold.

For the compound `Cc1ccc(N[C@H]2C[C@H](C)N(C(=O)c3ccccc3)c3ccc(C)cc32)cc1` (relative stereo) [Compound I-72], the “Fold Induction Average, AA_3T3V1 Assay 33 μM” value in data set [1] is 114 fold. For the same compound, in data set [2], the “Fold Induction Average, Z3V1 Assay 33 μM” value was 1 fold.

For `Cc1ccc(N[C@H]2C[C@H](C)N(C(=O)c3cccc(F)c3)c3ccc(C)cc32)cc1` (relative stereo) [Compound I-73], the “Fold Induction Average, AA_3T3V1 Assay 33 μM” value in data set [1] was 207 fold. The “Fold Induction Average, Z3V1 Assay 33 μM” value in data set [2] is listed as 1 fold.

In the case of `Cc1ccc(N[C@H]2C[C@H](C)N(C(=O)c3ccccc3C(F)(F)F)c3ccc(C)cc32)cc1` (relative stereo) [Compound I-74], in data set [1], the “Fold Induction Average, AA_3T3V1 Assay 33 μM” value was 22 fold. Also, in data set [2], the “Fold Induction Average, Z3V1 Assay 33 μM” value amounted to 1 fold.

As to `Cc1ccc(N[C@H]2C[C@H](C)N(C(=O)c3cccc(C(F)(F)F)c3)c3ccc(C)cc32)cc1` (relative stereo) [Compound I-75], in data set [1], the “Fold Induction Average, AA_3T3V1 Assay 33 μM” value was found to be 13 fold. Also, the “Fold Induction Average, Z3V1 Assay 33 μM” value in data set [2] came to 2 fold.

Take `Cc1ccc(N[C@H]2C[C@H](C)N(C(=O)c3ccc(C(F)(F)F)cc3)c3ccc(C)cc32)cc1` (relative stereo) [Compound I-76]: the “Fold Induction Average, AA_3T3V1 Assay 33 μM” value in data set [1] stood at 741 fold. Moreover, in data set [2], the “Fold Induction Average, Z3V1 Assay 33 μM” value turned out to be 1 fold.

On to `C[C@H]1C[C@H](Nc2ccc(F)cc2)c2cc(F)ccc2N1C(=O)c1cccc(F)c1` (relative stereo) [Compound I-77], for which, in data set [1], the “Fold Induction Average, AA_3T3V1 Assay 33 μM” value is 272 fold. Also, in data set [2], the “Fold Induction Average, Z3V1 Assay 33 μM” value is on record as 153 fold.

`C[C@H]1C[C@H](Nc2ccc(F)cc2)c2cc(F)ccc2N1C(=O)c1ccccc1C(F)(F)F` (relative stereo) [Compound I-78]: the “Fold Induction Average, AA_3T3V1 Assay 33 μM” value in data set [1] was found to be 33 fold. The “Fold Induction Average, Z3V1 Assay 33 μM” value in data set [2] was determined as 3 fold.

For `C[C@H]1C[C@H](Nc2ccc(F)cc2)c2cc(F)ccc2N1C(=O)c1cccc(C(F)(F)F)c1` (relative stereo) [Compound I-79], the “Fold Induction Average, AA_3T3V1 Assay 33 μM” value in data set [1] turned out to be 595 fold. Also, the “Fold Induction Average, Z3V1 Assay 33 μM” value in data set [2] was 137 fold.

In the case of `C[C@H]1C[C@H](Nc2ccc(F)cc2)c2cc(F)ccc2N1C(=O)c1ccc(C(F)(F)F)cc1` (relative stereo) [Compound I-80], the “Fold Induction Average, AA_3T3V1 Assay 33 μM” value in data set [1] was 914 fold. The “Fold Induction Average, Z3V1 Assay 33 μM” value in data set [2] is 37 fold.

Consider `COc1cccc(C(=O)N2c3ccccc3[C@@H](Nc3ccccc3)C[C@@H]2C)c1` (relative stereo) [Compound I-81], for which, in data set [1], the “Fold Induction Average, AA_3T3V1 Assay 33 μM” value is 9 fold. For the same compound, the “Fold Induction Average, Z3V1 Assay 33 μM” value in data set [2] is listed as 1 fold.

In the case of `Cc1ccc(C(=O)N2c3ccccc3[C@@H](Nc3ccccc3)C[C@@H]2C)cc1` (relative stereo) [Compound I-82], the “Fold Induction Average, AA_3T3V1 Assay 33 μM” value in data set [1] is listed as 79 fold. Further, the “Fold Induction Average, Z3V1 Assay 33 μM” value in data set [2] was 1 fold.

With `COc1ccc(C(=O)N2c3ccccc3[C@@H](Nc3ccccc3)C[C@@H]2C)cc1` (relative stereo) [Compound I-83], the “Fold Induction Average, AA_3T3V1 Assay 33 μM” value in data set [1] was 345 fold. Besides, the “Fold Induction Average, Z3V1 Assay 33 μM” value in data set [2] was determined as 8 fold.

For the compound `COC(=O)c1ccc(C(=O)N2c3ccccc3[C@@H](Nc3ccccc3)C[C@@H]2C)cc1` (relative stereo) [Compound I-84], the “Fold Induction Average, AA_3T3V1 Assay 33 μM” value in data set [1] turned out to be 508 fold. Moreover, the “Fold Induction Average, Z3V1 Assay 33 μM” value in data set [2] is reported as 3 fold.

With `Cc1ccc(N[C@H]2C[C@H](C)N(C(=O)c3cccc(C)c3)c3ccc(C)cc32)cc1` (relative stereo) [Compound I-85], the “Fold Induction Average, AA_3T3V1 Assay 33 μM” value in data set [1] is recorded as 3 fold. Moreover, the “Fold Induction Average, Z3V1 Assay 33 μM” value in data set [2] was determined as 1 fold.

For `Cc1ccc(N[C@H]2C[C@H](C)N(C(=O)c3ccc(C)cc3)c3ccc(C)cc32)cc1` (relative stereo) [Compound I-87], the “Fold Induction Average, AA_3T3V1 Assay 33 μM” value in data set [1] was found to be 250 fold. In data set [2], the “Fold Induction Average, Z3V1 Assay 33 μM” value was determined as 1 fold.

For the compound `COc1ccc(C(=O)N2c3ccc(C)cc3[C@@H](Nc3ccc(C)cc3)C[C@@H]2C)cc1` (relative stereo) [Compound I-88], the “Fold Induction Average, AA_3T3V1 Assay 33 μM” value in data set [1] came out at 213 fold. Also, in data set [2], the “Fold Induction Average, Z3V1 Assay 33 μM” value is listed as 1 fold.

In the case of `COC(=O)c1ccc(C(=O)N2c3ccc(C)cc3[C@@H](Nc3ccc(C)cc3)C[C@@H]2C)cc1` (relative stereo) [Compound I-89], the “Fold Induction Average, AA_3T3V1 Assay 33 μM” value in data set [1] came to 30 fold. The “Fold Induction Average, Z3V1 Assay 33 μM” value in data set [2] came out at 1 fold.

Regarding `Cc1cccc(C(=O)N2c3ccc(F)cc3[C@@H](Nc3ccc(F)cc3)C[C@@H]2C)c1` (relative stereo) [Compound I-90], in data set [1], the “Fold Induction Average, AA_3T3V1 Assay 33 μM” value is reported as 433 fold. Also, the “Fold Induction Average, Z3V1 Assay 33 μM” value in data set [2] worked out at 33 fold.

`COc1cccc(C(=O)N2c3ccc(F)cc3[C@@H](Nc3ccc(F)cc3)C[C@@H]2C)c1` (relative stereo) [Compound I-91]: the “Fold Induction Average, AA_3T3V1 Assay 33 μM” value in data set [1] turned out to be 542 fold. Besides, in data set [2], the “Fold Induction Average, Z3V1 Assay 33 μM” value is 107 fold.

`Cc1ccc(C(=O)N2c3ccc(F)cc3[C@@H](Nc3ccc(F)cc3)C[C@@H]2C)cc1` (relative stereo) [Compound I-92]: the “Fold Induction Average, AA_3T3V1 Assay 33 μM” value in data set [1] is 229 fold. Moreover, the “Fold Induction Average, Z3V1 Assay 33 μM” value in data set [2] amounted to 100 fold.

Regarding `COc1ccc(C(=O)N2c3ccc(F)cc3[C@@H](Nc3ccc(F)cc3)C[C@@H]2C)cc1` (relative stereo) [Compound I-93], the “Fold Induction Average, AA_3T3V1 Assay 33 μM” value in data set [1] was 378 fold. Besides, in data set [2], the “Fold Induction Average, Z3V1 Assay 33 μM” value was 87 fold.

Take `C[C@H]1C[C@H](Nc2ccccc2)c2ccccc2N1C(=O)c1ccc(C(C)(C)C)cc1` (relative stereo) [Compound I-134]: in data set [1], the “Fold Induction Average, AA_3T3V1 Assay 33 μM” value is 39 fold. Further, the “Fold Induction Average, Z3V1 Assay 33 μM” value in data set [2] was 1 fold.

`COc1ccc(C(=O)N2c3ccc(C)cc3[C@@H](Nc3ccc(C)cc3)C[C@H]2C)cc1` (stereo in doubt) [Compound I-98, cis-2,6-dimethyl-1-(4-methoxybenzoyl)-4-(4-methylphenylamino)-1,2,3,4-tetrahydroquinoline]: the fold induction at 33 µM in data set [1] (NIH3T3, read-out: Fold Induction Average, AA_3T3V1 Assay 33 μM) came out at 1; in data set [2] (HEK293, 48 h, read-out: Fold Induction Average, Z3V1 Assay 33 μM), 1.

Consider `CCc1ccc(C(=O)N2c3ccc(F)cc3C(Nc3ccc(F)cc3)CC2C)cc1` (centres unmarked) [Compound I-36], for which, in data set [1], the “Fold Induction Average, AA_3T3V1 Assay 33 μM” value amounted to 113 fold. Moreover, in data set [2], the “Fold Induction Average, Z3V1 Assay 33 μM” value is 33 fold.

As to `COC(=O)c1ccc(C(=O)N2c3ccc(F)cc3C(Nc3ccc(F)cc3)CC2C)cc1` (centres unmarked) [Compound I-37], the “Fold Induction Average, AA_3T3V1 Assay 33 μM” value in data set [1] stood at 37 fold. For the same compound, the “Fold Induction Average, Z3V1 Assay 33 μM” value in data set [2] is listed as 1 fold.

On to `CC1CC(Nc2ccc(F)cc2)c2cc(F)ccc2N1C(=O)c1ccc2c(c1)OCO2` (centres unmarked) [Compound I-38], for which, in data set [1], the “Fold Induction Average, AA_3T3V1 Assay 33 μM” value came to 76 fold. The “Fold Induction Average, Z3V1 Assay 33 μM” value in data set [2] is recorded as 10 fold.

As for `COc1cccc(C(=O)N2c3ccc(C)cc3C(Nc3ccc(C)cc3)CC2C)c1C` (centres unmarked) [Compound I-54], the “Fold Induction Average, AA_3T3V1 Assay 33 μM” value in data set [1] was determined as 35 fold. For the same compound, the “Fold Induction Average, Z3V1 Assay 33 μM” value in data set [2] is listed as 7 fold.
